Assay results as given in patent publication US10011571B2, “Preparation method for aromatic heterocyclic compound used as selective JAK3 and/or JAK1 kinase inhibitor and application of aromatic heterocyclic compound” (SHENZHEN CHIPSCREEN BIOSCIENCES, LTD., priority 2014, dated 2018).

Legend:
[1] = tested on: IL-4/JAK1 & 3/STAT6 (THP-1); experiment: Intracellular activity assay, IL-4 induced STAT6 phosphorylation in THP-1; type: cell-based; details: Homo sapiens; inhibition of STAT6 phosphorylation, THP-1, IL-4 10 ng/mL
From the text: (§1) In this experiment, western blot (WB) and flow cytometry are used to evaluate the intracellular activities of the test compounds by comparing the relative levels of the signals of phosphorylated and non-phosphorylated STATs in 5 cell models, including U937, THP-1, CTLL-2, UT-7/EPO and activated human periphery blood cell (hPBC). The primary antibody and secondary antibody used in WB hybridization in this experiment are purchased from Cell Signaling Company (http://www.cellsignal.com). The fluorescence-labeled antibodies used in flow cytometry are purchased from eBiosciences Company (http://www.ebioscience.com).
THP-1 is a monocytic cell line. […] The intracellular inhibitory activity of the compounds on JAK1/3 can be evaluated by detecting the change of the phosphorylation level of STAT6. […]
(2) Protein extraction and WB detection: after extraction, the protein content is determined. […]
(3) Signal detection: the hybridization signal is detected by X-ray imaging. The grey scale signal obtained by scanning is converted to digital signal, and the signal intensities for both phosphorylated STATs and STATs are each calculated to evaluate the phosphorylation inhibitory activities of the compounds on STATs. […]
(§2) (2) Cell fixation and fluorescence labeling: the cells are fixed using paraformaldehyde (30 min), and subsequently treated for membrane permeability in chilled methanol (15 min). […]

[2] = tested on: IL-2/JAK1 & 3/STAT5 (CTLL-2); experiment: Intracellular activity assay, IL-2 induced STAT5 phosphorylation in CTLL-2; type: cell-based; details: Mus musculus; inhibition of STAT5 phosphorylation, CTLL-2, IL-2 10 ng/mL
From the text: as §1
CTLL-2 is a T-cell line, and its proliferation and growth depends on cytokine IL-2. […] The intracellular inhibitory activity of the compounds on JAK1/3 can be evaluated by detecting the change of the phosphorylation level of STAT5. […]
as §2
(3) Detection by flow cytometry: the detection is carried out using Guava® easyCyte flow cytometer according to the instruction. The median fluorescent intensity (MFI) of a sample is detected using an appropriate cell population. […]

[3] = tested on: collagen-induced arthritis (CIA) model of rats; experiment: Collagen-induced arthritis (CIA) model of rats; type: in vivo; details: rat CIA; for swelling degree induced by arthritis in the rats, compared to the solvent group: 40 mg/kg i.g.; for Inhibitory rate for arthritis score % / Inhibitory rate for paw volume % / Inhibitory rate for toe thickness % / Body weight growth rate %: 14 days after administration, Examples 40 mg/kg i.g. twice/day, MTX 5 mg/kg i.p. twice a week; for Body weight growth rate %: solvent = 100.0; for toxicity to the rats judged from body weight: compared to the solvent group
Description: Objective: in this test, arthritis is induced by chicken collagen in Wistar rats. After in vivo administration of the compounds of Example 7 and Example 22, the change of the disease index for arthritis in rats is evaluated to determine the therapeutic effect of the test compounds on rat arthritis.
Experimental animals: 36 female Wistar rats were purchased from the animal experiment center, Sun Yat-Sen University (Guangzhou) with the body weight ranging from 180 to 200 g at the beginning of experiment. Four groups (8 rats in each group) were used as the arthritis model, and another group (4 rats) was used as normal control.
Materials: chicken type II collagen and Freund's complete adjuvant were purchased from Beijing Biolead Science and Technology Development Co., Ltd. Positive control: methotrexat (MTX).
Preparation method: the test compounds were prepared by adding them to freshly prepared 0.2% CMC-Na+0.1% Tween-80 solution in sterile water to a desired concentration and thoroughly mixing through ultrasound.
CIA model: the chicken collagen was fully emulsified in equal volume of freud's complete adjuvant, and subcutaneously injected at the tail root of the rat on day 0 for sensitization (250 μL/rat). Another injection was performed at the tail root on day 7 for supplementary immunization (100 μL/rat). After arthritis occurred (on about day 13), the rats were randomly divided into 4 groups with 8 rats in each group. Administration started on day 14 after the first immunization, and lasted for 14 days. The limbs of a rat were visually inspected, and the severity of arthritis was scored in a range from […]: 0=normal; 1=a slight symptom, with signs, such as red and swollen ankle or wrist; 2=moderate red and swollen ankle or wrist; 3=severe red and swollen paw, including toes; 4=severe swollen joint accompanied with dysfunction; the highest score for each rat was 16. The thickness of toes of posterior limbs and the paw volume were measured at the same time.
Medication: the rats were i.g. administered with the compound of Example 7 at a concentration of 40 mg/kg twice/day; or the rats were i.g. administered with the compound of Example 22 at a concentration of 40 mg/kg twice/day. For the positive control, 5 mg/kg MTX was intraperitoneally injected twice a week. The i.g. administration of solvent was used as the negative control. The data obtained 14 days after administration and before administration were compared.

Compound	IC50 [1]	IC50 [2]	swelling degree induced by arthritis in the rats, compared to the solvent group [3]	Inhibitory rate for arthritis score % [3]	Inhibitory rate for paw volume % [3]	Inhibitory rate for toe thickness % [3]	Body weight growth rate % [3]	toxicity to the rats judged from body weight [3]
C=CC(=O)N(C)c1cc(Nc2ncc(Cl)c(NCCCNC(=O)c3ccc(F)cc3)n2)ccc1F [Example 23, N-(3-(5-chloro-2-(4-fluoro-3-(N-methylacrylamido)phenylamino)pyrimidinyl-4-amino)propyl)-4-fluorobenzamide]	1730 nM	130 nM						
C=CC(=O)N(C)c1cc(Nc2ncc(Cl)c(NCCCNC(=O)c3ccc(C(F)(F)F)cc3)n2)ccc1F [Example 22, N-(3-(5-chloro-2-(4-fluoro-3-(N-methylacrylamido)phenylamino)pyrimidinyl-4-amino)propyl)-4-trifluoromethylbenzamide]			certain inhibitory effect	25.5%	24.6%	13.9%	102.0%	no significant toxicity
C=CC(=O)N(C)c1cc(Nc2ncc(Cl)c(NCCCNC(=O)c3ccc(C#N)cc3)n2)ccc1F [Example 7, N-(3-(5-chloro-2-(4-fluoro-3-(N-methylacrylamido)phenylamino)pyrimidinyl-4-amino)propyl)-4-cyano-benzamide]	1690 nM	80 nM	significantly inhibited	75.0%	63.6%	74.3%	102.2%	no significant toxicity
